Assay results taken from paper PMC434488 (BMC Biochemistry, 2004).

Tests used:
[1] = biological target: S. cerevisiae carbamylphosphate synthetase – aspartate transcarbamylase multifunctional protein (CPSase-ATCase complex) (Saccharomyces cerevisiae, UniProt P07259, E2182K); type: biochemical
[2] = biological target: S. cerevisiae carbamylphosphate synthetase – aspartate transcarbamylase multifunctional protein (CPSase-ATCase complex) (Saccharomyces cerevisiae, UniProt P07259); type: biochemical
S. cerevisiae carbamylphosphate synthetase – aspartate transcarbamylase multifunctional protein (CPSase-ATCase complex) (Saccharomyces cerevisiae, UniProt P07259), sequence (P07259 2-2214, one chain of several): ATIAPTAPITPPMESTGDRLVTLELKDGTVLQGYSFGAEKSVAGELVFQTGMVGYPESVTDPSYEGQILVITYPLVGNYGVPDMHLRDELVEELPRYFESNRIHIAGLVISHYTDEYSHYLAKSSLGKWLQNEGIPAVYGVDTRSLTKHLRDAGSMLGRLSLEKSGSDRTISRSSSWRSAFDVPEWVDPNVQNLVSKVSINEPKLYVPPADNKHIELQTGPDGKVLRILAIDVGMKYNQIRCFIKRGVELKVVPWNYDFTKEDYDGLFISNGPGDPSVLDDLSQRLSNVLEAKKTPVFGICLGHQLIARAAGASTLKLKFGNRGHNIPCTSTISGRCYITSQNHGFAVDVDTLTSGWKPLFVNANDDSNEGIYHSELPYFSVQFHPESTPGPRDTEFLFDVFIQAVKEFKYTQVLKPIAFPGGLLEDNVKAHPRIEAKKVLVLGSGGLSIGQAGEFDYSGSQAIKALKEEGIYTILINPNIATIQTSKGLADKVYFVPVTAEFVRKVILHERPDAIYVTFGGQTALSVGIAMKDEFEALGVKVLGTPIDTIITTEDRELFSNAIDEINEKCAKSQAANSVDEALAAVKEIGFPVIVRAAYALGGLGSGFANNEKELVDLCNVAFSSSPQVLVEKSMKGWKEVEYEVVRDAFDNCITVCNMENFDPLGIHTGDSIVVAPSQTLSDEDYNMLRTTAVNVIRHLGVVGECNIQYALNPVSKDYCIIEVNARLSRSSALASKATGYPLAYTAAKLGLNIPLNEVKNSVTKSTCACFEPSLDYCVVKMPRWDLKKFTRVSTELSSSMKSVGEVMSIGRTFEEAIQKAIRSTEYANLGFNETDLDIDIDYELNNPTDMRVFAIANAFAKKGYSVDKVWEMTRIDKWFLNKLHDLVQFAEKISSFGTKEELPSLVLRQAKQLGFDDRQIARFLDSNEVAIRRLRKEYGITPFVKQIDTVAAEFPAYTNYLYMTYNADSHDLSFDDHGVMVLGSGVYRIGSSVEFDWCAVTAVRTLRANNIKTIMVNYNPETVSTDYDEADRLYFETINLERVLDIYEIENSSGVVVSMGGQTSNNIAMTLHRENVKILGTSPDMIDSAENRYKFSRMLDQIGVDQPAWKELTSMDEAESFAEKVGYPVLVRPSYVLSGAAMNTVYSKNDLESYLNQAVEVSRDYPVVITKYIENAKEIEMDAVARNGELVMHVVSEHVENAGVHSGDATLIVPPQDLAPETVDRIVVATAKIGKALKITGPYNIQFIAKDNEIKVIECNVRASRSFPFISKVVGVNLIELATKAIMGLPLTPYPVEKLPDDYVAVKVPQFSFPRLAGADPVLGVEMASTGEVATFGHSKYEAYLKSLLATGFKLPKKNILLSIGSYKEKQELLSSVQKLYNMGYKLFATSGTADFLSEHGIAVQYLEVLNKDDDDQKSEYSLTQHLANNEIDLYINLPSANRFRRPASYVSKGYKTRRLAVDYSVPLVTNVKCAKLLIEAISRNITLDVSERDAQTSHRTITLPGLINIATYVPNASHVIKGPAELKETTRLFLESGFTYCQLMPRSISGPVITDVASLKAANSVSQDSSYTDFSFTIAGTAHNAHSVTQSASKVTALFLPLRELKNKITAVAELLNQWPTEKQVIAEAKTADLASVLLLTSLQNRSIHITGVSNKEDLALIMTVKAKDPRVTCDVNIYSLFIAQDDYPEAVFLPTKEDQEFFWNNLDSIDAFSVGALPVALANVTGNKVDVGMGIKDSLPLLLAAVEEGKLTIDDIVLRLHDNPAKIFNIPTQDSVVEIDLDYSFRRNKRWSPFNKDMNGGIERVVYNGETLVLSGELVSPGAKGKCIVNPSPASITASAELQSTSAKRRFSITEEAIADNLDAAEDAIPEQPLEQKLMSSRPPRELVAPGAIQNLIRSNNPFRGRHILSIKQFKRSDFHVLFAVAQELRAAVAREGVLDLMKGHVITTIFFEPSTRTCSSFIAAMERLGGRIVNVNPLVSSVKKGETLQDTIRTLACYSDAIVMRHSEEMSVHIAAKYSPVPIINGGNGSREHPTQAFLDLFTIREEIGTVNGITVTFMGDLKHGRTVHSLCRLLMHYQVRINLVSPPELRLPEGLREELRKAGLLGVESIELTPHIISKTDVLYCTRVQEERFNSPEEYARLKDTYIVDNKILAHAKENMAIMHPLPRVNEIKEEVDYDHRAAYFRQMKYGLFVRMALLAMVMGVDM

S. cerevisiae carbamylphosphate synthetase – aspartate transcarbamylase multifunctional protein (CPSase-ATCase complex) (Saccharomyces cerevisiae, UniProt P07259, E2182K), sequence (P07259 2-2214 E2182K, one chain of several): as the sequence (P07259 2-2214, one chain of several) above, with E2181K counted along it

- Ki [1]: 3 ± 1 mM
- IC50 [2]: 0.8 mM
SMILES: O=c1ccn([C@@H]2O[C@H](COP(=O)(O)OP(=O)(O)OP(=O)(O)O)[C@@H](O)[C@H]2O)c(=O)[nH]1 [UTP]
